Assay results taken from patent US12673043B2, “Use of inhibitors of the activator protein 1 (AP-1) for preventing adhesions” (The Board of Trustees of the Leland Stanford Junior …, priority 2020, dated 2026).

What was measured:
phospho-JUN [1] = experiment: In vitro T-5224 treatment of freshly isolated mouse adhesion fibroblasts, phospho-flow cytometry; format: cell-based; details: T-5224 10 μM, 24 hours, versus vehicle control (FIG. 22a)
Source text: (§1) Recruitment of Human Specimens. Human abdominal adhesion and control specimens were obtained at the Stanford Hospital under Stanford University's IRB approval. Clinical inclusion criteria were as follows: For adhesion specimens—patients must have had at least one prior abdominal surgery, for control specimens—patients must have had no history of prior abdominal surgery. For all patients, surgery must be elective, and there must be no evidence of active inflammation/infection at time of operation. Written, informed consent was obtained from the patient in the pre-op holding area prior to surgery. Tissue was collected in the operating room, placed directly into sterile saline, and kept on ice for transport. Sample preparation and FACS isolation. Adhesion or control tissue from mouse or human specimens was minced on ice. The tissue was then digested for 60 minutes in a 37° C. water bath agitator in 2 mg/mL collagenase (collagenase type IV, ThermoFisher) digest buffer in Medium 199 (HyClone, GE Healthcare) consisting of 5% fetal bovine serum (Gibco FBS, ThermoFisher), DNase I (Worthington), Poloxamer 188 (Cat. P5556-100ML, Sigma), HEPES, and CaCl2. […] Cells were counted and re-suspended in FACS buffer. […]

phospho-STAT5 [2] = experiment: as above; format: cell-based; details: T-5224 10 μM, 24 hours, versus vehicle control (FIG. 22a)
Source text: as §1

phospho-JUN [3] = experiment: In vivo JUN suppression in mouse adhesion model, phospho-flow cytometry of adhesion fibroblasts; details: applied intra-abdominally (10 uM in DMSO, locally at time of adhesion surgery), wild-type and JUN mice, 24 hours, versus vehicle control (FIG. 5d, 22b)
Experimental: (§2) Mouse Model for Adhesions. A similar model for abdominal adhesion formation has been described previously by our laboratory. In brief, mice were anesthetized with inhaled isoflurane (Henry Schein Animal Health,) at a concentration of 1-2% in oxygen at 3 L/min. Ophthalmic ointment (Puralube petrolatum, Dechra Veterinary Products) was applied to the cornea to prevent desiccation. Buprenorphine (Buprenex, Reckitt Benckiser Pharmaceuticals Inc.) was administered subcutaneously prior to the surgery at a dose of 0.1 mg/kg. The mice were placed in the supine position on a clean operating surface. A heating pad was used beneath the surgical field to keep the animals warm throughout the procedure. The abdomens were shaved, and the skin of the abdomen was sterilized with three applications of betadine followed by 70% ethanol. During the procedure, the respiratory rate of the animals was monitored, and the isoflurane was titrated accordingly. A vertical midline skin incision was made in the abdomen with sharp scissors. The underlying abdominal wall was then opened vertically. The cecum was located and exteriorized. The cecal wall was abraded gently with 150-grit sandpaper. The parietal peritoneum along the abdominal wall was similarly abraded with sandpaper and three, single, interrupted, 4-0, silk sutures were placed into the right abdominal sidewall, which served as a nidus for adhesion formation. The cecum was then placed anatomically adjacent to the right abdominal wall. The abdomen was briefly irrigated with warmed, sterile, normal saline. The irrigant was removed by blotting with a gauze sponge. The abdominal wall incision was closed with running 6-0 Monocryl suture, and the skin incision was closed with 6-0 nylon, horizontal mattress sutures. The animals were monitored during recovery from anesthesia. Additional buprenorphine was given every 6-12 hours as needed for pain. For sham surgery, animals were treated in an identical manner; however, incisions were closed without manipulation of abdominal organs.
(§3) In Vivo JUN Induction and Suppression. Doxycycline (2 mg/mL) or T-5224 (Cayman Chem, 10 uM) resuspended in DMSO were applied locally to adhesion sites at the time of adhesion surgery for JUN induction (in JUN mice) or suppression (in JUN and WT mice), respectively. Vehicle only was used for control.
(§4) Recruitment of Human Specimens. Human abdominal adhesion and control specimens were obtained at the Stanford Hospital under Stanford University's IRB approval. Clinical inclusion criteria were as follows: For adhesion specimens—patients must have had at least one prior abdominal surgery, for control specimens—patients must have had no history of prior abdominal surgery. […] Cells were counted and re-suspended in FACS buffer. […]

phospho-STAT5 [4] = experiment: as above; details: applied intra-abdominally (10 uM in DMSO, locally at time of adhesion surgery), wild-type and JUN mice, 24 hours, versus vehicle control (FIG. 5d, 22b)
Experimental: as §2, §3, §4

[5] = test system: abdominal adhesion formation; experiment: Mouse model for abdominal adhesions, gross and histologic scoring of adhesion tissue; format: in vivo; details: local application at surgery, JUN and wild-type mice
Experimental: (§5) Mouse Model for Adhesions. A similar model for abdominal adhesion formation has been described previously by our laboratory. In brief, mice were anesthetized with inhaled isoflurane (Henry Schein Animal Health,) at a concentration of 1-2% in oxygen at 3 L/min. Ophthalmic ointment (Puralube petrolatum, Dechra Veterinary Products) was applied to the cornea to prevent desiccation. Buprenorphine (Buprenex, Reckitt Benckiser Pharmaceuticals Inc.) was administered subcutaneously prior to the surgery at a dose of 0.1 mg/kg. The mice were placed in the supine position on a clean operating surface. A heating pad was used beneath the surgical field to keep the animals warm throughout the procedure. The abdomens were shaved, and the skin of the abdomen was sterilized with three applications of betadine followed by 70% ethanol. During the procedure, the respiratory rate of the animals was monitored, and the isoflurane was titrated accordingly. A vertical midline skin incision was made in the abdomen with sharp scissors. The underlying abdominal wall was then opened vertically. The cecum was located and exteriorized. The cecal wall was abraded gently with 150-grit sandpaper. […] The animals were monitored during recovery from anesthesia. […]

PDGFRA = experiment: Immunofluorescent staining of adhesion tissue after in vivo JUN inhibition; set-up: species or system mouse; details: IF staining of adhesion tissue, JUN mice induced with doxycycline (FIG. 6e)
Experimental: as §5

phospho-JUN [6] = experiment: as above; set-up: species or system mouse; details: IF staining of adhesion tissue, JUN mice induced with doxycycline, versus vehicle control (FIG. 6e-f)
Experimental: as §5

In the case of `O=C(O)CCc1cc(C(=O)c2ccc(OC3CCCC3)cc2O)ccc1OCc1ccc2c(=O)[nH]oc2c1` [T-5224, 3-[5-(4-Cyclopentyloxy-2-hydroxybenzoyl)-2-[(3-oxo-1,2-benzoxazol-6-yl)methoxy]phenyl]propanoic acid], the phospho-JUN expression (phospho-JUN [1]) is reported as “significantly reduced”, the phospho-STAT5 expression (phospho-STAT5 [2]) is reported as “significantly reduced” and the phospho-JUN expression (phospho-JUN [3]) is reported as “significantly decreased”. For the same molecule, the phospho-JUN expression (phospho-JUN [3]; listed as JUN inhibitor) was “significant decrease”, the phospho-STAT5 expression (phospho-STAT5 [4]) was “significantly decreased” and the phospho-STAT5 expression (phospho-STAT5 [4]; listed as JUN inhibitor) was “significant decrease”. For the same molecule, the “adhesions, histologic assessment” value ([5]; H&E and trichrome, versus vehicle control (FIG. 6a-d)) was “significantly thinner and less fibrotic”, the “adhesion formation, gross assessment” value ([5]; POD3, versus vehicle control (FIG. 5e-f)) was “dramatic decrease” and the “PDGFRA expression in adhesion tissue” value (PDGFRA) was “Co-suppression”. For the same molecule, the “JUN expression at the tissue level (p-JUN+ cells)” value (phospho-JUN [6]) was “decreased”.
